Tests used:
CCRFCEM = assay: 11×7 synergism hit rate; type: cell-based; conditions: Leukemia CCRFCEM, combination with SR16388
Excerpt: (§1) SR16388 was synthesized in house.
(§2) Within the same type of cancer cells, some cell lines have more synergistic hits than others. Melanoma and breast cancer cell lines had the highest hit rate.

HT29 = assay: 11×7 synergism hit rate; type: cell-based; conditions: Colon Cancer HT29, combination with SR16388
Excerpt: as §1, §2

SKOV3 = assay: 11×7 synergism hit rate; type: cell-based; conditions: Ovarian Cancer SKOV3, combination with SR16388
Excerpt: as §1, §2

BT549 = assay: 11×7 synergism hit rate; type: cell-based; conditions: Breast Cancer BT549, combination with SR16388
Excerpt: as §1, §2

U031 = assay: 11×7 synergism hit rate; type: cell-based; conditions: Renal Cancer U031, combination with SR16388
Excerpt: as §1, §2

K562 = assay: 11×7 synergism hit rate; type: cell-based; conditions: Leukemia K562, combination with SR16388
Excerpt: as §1, §2

HCC2998 = assay: 11×7 synergism hit rate; type: cell-based; conditions: Colon Cancer HCC2998, combination with SR16388
Excerpt: as §1, §2

MDAMB468 = assay: 11×7 synergism hit rate; type: cell-based; conditions: Breast Cancer MDAMB468, combination with SR16388
Excerpt: as §1, §2

NCIH226 = assay: 11×7 synergism hit rate; type: cell-based; conditions: NSCLC NCIH226, combination with SR16388
Excerpt: as §1, §2

MOLT4 = assay: 11×7 synergism hit rate; type: cell-based; conditions: Leukemia MOLT4, combination with SR16388
Excerpt: as §1, §2

CAKI1 = assay: 11×7 synergism hit rate; type: cell-based; conditions: Renal Cancer CAKI1, combination with SR16388
Excerpt: as §1, §2

NCIH522 = assay: 11×7 synergism hit rate; type: cell-based; conditions: NSCLC NCIH522, combination with SR16388
Excerpt: as §1, §2

MDAMB435 = assay: 11×7 synergism hit rate; type: cell-based; conditions: Melanoma MDAMB435, combination with SR16388
Excerpt: as §1, §2

HCT15 = assay: 11×7 synergism hit rate; type: cell-based; conditions: Colon Cancer HCT15, combination with SR16388
Excerpt: as §1, §2

HOP62 = assay: 11×7 synergism hit rate; type: cell-based; conditions: NSCLC HOP62, combination with SR16388
Excerpt: as §1, §2

MDAMB231 = assay: 11×7 synergism hit rate; type: cell-based; conditions: Breast Cancer MDAMB231, combination with SR16388
Excerpt: as §1, §2

A498 = assay: 11×7 synergism hit rate; type: cell-based; conditions: Renal Cancer A498, combination with SR16388
Excerpt: as §1, §2

SN12C = assay: 11×7 synergism hit rate; type: cell-based; conditions: Renal Cancer SN12C, combination with SR16388
Excerpt: as §1, §2

EKVX = assay: 11×7 synergism hit rate; type: cell-based; conditions: NSCLC EKVX, combination with SR16388
Excerpt: as §1, §2

NCIH322M = assay: 11×7 synergism hit rate; type: cell-based; conditions: NSCLC NCIH322M, combination with SR16388
Excerpt: as §1, §2

MCF7 = assay: 11×7 synergism hit rate; type: cell-based; conditions: Breast Cancer MCF7, combination with SR16388
Excerpt: as §1, §2

T47D = assay: 11×7 synergism hit rate; type: cell-based; conditions: Breast Cancer T47D, combination with SR16388
Excerpt: as §1, §2

SF295 = assay: 11×7 synergism hit rate; type: cell-based; conditions: CNS Cancer SF295, combination with SR16388
Excerpt: as §1, §2

SR = assay: 11×7 synergism hit rate; type: cell-based; conditions: Leukemia SR, combination with SR16388
Excerpt: as §1, §2

OVCAR8 = assay: 11×7 synergism hit rate; type: cell-based; conditions: Ovarian Cancer OVCAR8, combination with SR16388
Excerpt: as §1, §2

TK10 = assay: 11×7 synergism hit rate; type: cell-based; conditions: Renal Cancer TK10, combination with SR16388
Excerpt: as §1, §2

UACC257 = assay: 11×7 synergism hit rate; type: cell-based; conditions: Melanoma UACC257, combination with SR16388
Excerpt: as §1, §2

HS578T = assay: 11×7 synergism hit rate; type: cell-based; conditions: Breast Cancer HS578T, combination with SR16388
Excerpt: as §1, §2

NCIH23 = assay: 11×7 synergism hit rate; type: cell-based; conditions: NSCLC NCIH23, combination with SR16388
Excerpt: as §1, §2

HL60 = assay: 11×7 synergism hit rate; type: cell-based; conditions: Leukemia HL60, combination with SR16388
Excerpt: as §1, §2

MALME = assay: 11×7 synergism hit rate; type: cell-based; conditions: Melanoma MALME, combination with SR16388
Excerpt: as §1, §2

ADRRES = assay: 11×7 synergism hit rate; type: cell-based; conditions: Ovarian Cancer ADRRES, combination with SR16388
Excerpt: as §1, §2

7860 = assay: 11×7 synergism hit rate; type: cell-based; conditions: Renal Cancer 7860, combination with SR16388
Excerpt: as §1, §2

UACC62 = assay: 11×7 synergism hit rate; type: cell-based; conditions: Melanoma UACC62, combination with SR16388
Excerpt: as §1, §2

KM12 = assay: 11×7 synergism hit rate; type: cell-based; conditions: Colon Cancer KM12, combination with SR16388
Excerpt: as §1, §2

A549 = assay: 11×7 synergism hit rate; type: cell-based; conditions: NSCLC A549, combination with SR16388
Excerpt: as §1

[1] = system: various cancer cell lines; assay: 11×7 synergism hit rate over all cell lines (by algorism); type: cell-based; conditions: for % Hit rate: combination with SR16388, identified by algorism, all cell lines; for interaction with SR16388 in 11×7 experiments: in combination with SR16388
Excerpt: as §1, §2

[2] = system: panel of 48 to 60 cell lines; assay: 5×4 combination screen with SR16388, CellTiter-Glo viability; synergy by pattern recognition; conditions: for no effect (number of cell lines) / synergy (number of cell lines) / % synergy: in combination with SR16388, 5x4-T1; for no effect (number of cell lines) / synergy (number of cell lines): pattern recognition, of 60 cell lines incl. no data; for % synergy: share of cell lines with data
Protocol: Cells were treated with compounds alone or in combination for three days and CellTiter-Glo® Luminescent Cell Viability Assay (Promega Corp.) was used as the endpoint to measure cell viability.
Cells were cultured in DMEM with 10% fetal bovine serum and used between passage 2 and passage 20. Cells were harvested on Day-1 (FIG. 1A) and re-supspended to the corresponding seeding density and seeded with Wellmate (ThermoFisher) to 384 plates (BD or GBO).
40 mM Compound stocks in 100% DMSO were made. Master plates were made with Janus (PerkinElmer), then further diluted and added to the cell plates with Matrix Platemate (Thermo) on Day 0.
CellTiter-Glo® Luminescent Cell Viability Assay (Promega Corp.) was used to measure ATP as an indicator of viable cells on Day 3 using Envision (PerkinElmer) and back up reader Analyst HT (MDS) and Gen5 (BioTek).
Single point, 5×4 checkque board platemap was used in the initial screening.
Relative Luminescent Units (RLU) were plotted against corresponding drug concentrations and fitted with standard four parameter sigmoidal curve with custom coded R program or Calcusyn (Biosoft, Cambridge, UK).

## CC(=O)O[C@@]12CO[C@@H]1C[C@H](O)[C@@]1(C)C(=O)[C@H](O)C3=C(C)[C@@H](OC(=O)[C@H](O)[C@@H](NC(=O)OC(C)(C)C)c4ccccc4)C[C@@](O)([C@@H](OC(=O)c4ccccc4)[C@H]21)C3(C)C [Docetaxel]
CCRFCEM
  % Hit rate: 12%
HT29
  % Hit rate: 21%
SKOV3
  % Hit rate: 12%
BT549
  % Hit rate: 5%
U031
  % Hit rate: 4%
K562
  % Hit rate: 0%
HCC2998
  % Hit rate: 6%
MDAMB468
  % Hit rate: 6%
NCIH226
  % Hit rate: 19%
MOLT4
  % Hit rate: 13%
CAKI1
  % Hit rate: 16%
NCIH522
  % Hit rate: 8%
MDAMB435
  % Hit rate: 14%
HCT15
  % Hit rate: 12%
HOP62
  % Hit rate: 1%
MDAMB231
  % Hit rate: 10%
A498
  % Hit rate: 4%
SN12C
  % Hit rate: 8%
EKVX
  % Hit rate: 0%
NCIH322M
  % Hit rate: 14%
MCF7
  % Hit rate: 19%
T47D
  % Hit rate: 19%
SF295
  % Hit rate: 8%
SR
  % Hit rate: 0%
OVCAR8
  % Hit rate: 6%
TK10
  % Hit rate: 10%
UACC257
  % Hit rate: 18%
HS578T
  % Hit rate: 22%
NCIH23
  % Hit rate: 5%
HL60
  % Hit rate: 21%
MALME
  % Hit rate: 6%
ADRRES
  % Hit rate: 3%
7860
  % Hit rate: 10%
UACC62
  % Hit rate: 16%
KM12
  % Hit rate: 6%
A549
  % Hit rate: 4%
[1]
  % Hit rate: 10.69%
  interaction with SR16388 in 11×7 experiments: synergistic effect
[2]
  interaction with SR16388 in the screen of 30 cancer therapeutic agents: Synergistic anti-proliferation
  no effect (number of cell lines): 51
  synergy (number of cell lines): 7
  % synergy: 12%

## CC(=O)O[C@H]1C(=O)[C@@]2(C)[C@H]([C@H](OC(=O)c3ccccc3)[C@]3(O)C[C@H](OC(=O)[C@H](O)[C@@H](NC(=O)c4ccccc4)c4ccccc4)C(C)=C1C3(C)C)[C@]1(OC(C)=O)CO[C@@H]1C[C@@H]2O [Paclitaxel]
CCRFCEM
  % Hit rate: 14%
HT29
  % Hit rate: 22%
SKOV3
  % Hit rate: 18%
BT549
  % Hit rate: 3%
U031
  % Hit rate: 9%
K562
  % Hit rate: 12%
HCC2998
  % Hit rate: 12%
MDAMB468
  % Hit rate: 8%
NCIH226
  % Hit rate: 27%
MOLT4
  % Hit rate: 21%
CAKI1
  % Hit rate: 22%
NCIH522
  % Hit rate: 10%
MDAMB435
  % Hit rate: 12%
HCT15
  % Hit rate: 14%
HOP62
  % Hit rate: 1%
MDAMB231
  % Hit rate: 21%
A498
  % Hit rate: 10%
SN12C
  % Hit rate: 13%
EKVX
  % Hit rate: 0%
NCIH322M
  % Hit rate: 17%
MCF7
  % Hit rate: 31%
T47D
  % Hit rate: 19%
SF295
  % Hit rate: 8%
SR
  % Hit rate: 1%
OVCAR8
  % Hit rate: 13%
TK10
  % Hit rate: 13%
UACC257
  % Hit rate: 35%
HS578T
  % Hit rate: 23%
NCIH23
  % Hit rate: 4%
HL60
  % Hit rate: 25%
MALME
  % Hit rate: 14%
ADRRES
  % Hit rate: 1%
7860
  % Hit rate: 22%
UACC62
  % Hit rate: 25%
KM12
  % Hit rate: 10%
[1]
  % Hit rate: 14.88%
  interaction with SR16388 in 11×7 experiments: synergistic effect
[2]
  interaction with SR16388 in the screen of 30 cancer therapeutic agents: Synergistic anti-proliferation
  no effect (number of cell lines): 18
  synergy (number of cell lines): 40
  % synergy: 69%

## CC[C@]1(O)C[C@@H]2CN(CCc3c([nH]c4ccccc34)[C@@](C(=O)OC)(c3cc4c(cc3OC)N(C)[C@H]3[C@@](O)(C(=O)OC)[C@H](OC(C)=O)[C@]5(CC)C=CCN6CC[C@]43[C@@H]65)C2)C1 [Vinblastine]
CCRFCEM
  % Hit rate: 3%
HT29
  % Hit rate: 8%
SKOV3
  % Hit rate: 8%
BT549
  % Hit rate: 1%
U031
  % Hit rate: 3%
K562
  % Hit rate: 3%
HCC2998
  % Hit rate: 6%
MDAMB468
  % Hit rate: 3%
NCIH226
  % Hit rate: 8%
MOLT4
  % Hit rate: 8%
CAKI1
  % Hit rate: 12%
NCIH522
  % Hit rate: 4%
MDAMB435
  % Hit rate: 4%
HCT15
  % Hit rate: 10%
HOP62
  % Hit rate: 0%
MDAMB231
  % Hit rate: 1%
A498
  % Hit rate: 4%
SN12C
  % Hit rate: 1%
EKVX
  % Hit rate: 1%
NCIH322M
  % Hit rate: 3%
MCF7
  % Hit rate: 17%
T47D
  % Hit rate: 9%
SF295
  % Hit rate: 0%
SR
  % Hit rate: 0%
OVCAR8
  % Hit rate: 5%
TK10
  % Hit rate: 4%
UACC257
  % Hit rate: 6%
HS578T
  % Hit rate: 8%
NCIH23
  % Hit rate: 4%
HL60
  % Hit rate: 16%
MALME
  % Hit rate: 0%
ADRRES
  % Hit rate: 0%
7860
  % Hit rate: 10%
UACC62
  % Hit rate: 10%
KM12
  % Hit rate: 1%
A549
  % Hit rate: 0%
[1]
  % Hit rate: 4.94%
  interaction with SR16388 in 11×7 experiments: synergistic effect

## CC[C@]1(O)C[C@H]2CN(CCc3c([nH]c4ccccc34)[C@@](C(=O)OC)(c3cc4c(cc3OC)N(C=O)[C@H]3[C@@](O)(C(=O)OC)[C@H](OC(C)=O)[C@]5(CC)C=CCN6CC[C@]43[C@@H]65)C2)C1 [Vincristine]
CCRFCEM
  % Hit rate: 8%
HT29
  % Hit rate: 10%
SKOV3
  % Hit rate: 19%
BT549
  % Hit rate: 9%
U031
  % Hit rate: 12%
K562
  % Hit rate: 8%
HCC2998
  % Hit rate: 4%
MDAMB468
  % Hit rate: 5%
NCIH226
  % Hit rate: 8%
MOLT4
  % Hit rate: 16%
CAKI1
  % Hit rate: 13%
NCIH522
  % Hit rate: 10%
MDAMB435
  % Hit rate: 6%
HCT15
  % Hit rate: 9%
HOP62
  % Hit rate: 0%
MDAMB231
  % Hit rate: 17%
A498
  % Hit rate: 12%
SN12C
  % Hit rate: 14%
EKVX
  % Hit rate: 1%
NCIH322M
  % Hit rate: 18%
MCF7
  % Hit rate: 25%
T47D
  % Hit rate: 16%
SF295
  % Hit rate: 21%
SR
  % Hit rate: 0%
OVCAR8
  % Hit rate: 10%
TK10
  % Hit rate: 14%
UACC257
  % Hit rate: 25%
HS578T
  % Hit rate: 17%
NCIH23
  % Hit rate: 4%
HL60
  % Hit rate: 5%
MALME
  % Hit rate: 14%
ADRRES
  % Hit rate: 1%
7860
  % Hit rate: 18%
UACC62
  % Hit rate: 23%
KM12
  % Hit rate: 6%
A549
  % Hit rate: 10%
[1]
  % Hit rate: 10.91%
  interaction with SR16388 in 11×7 experiments: synergistic effect
[2]
  interaction with SR16388 in the screen of 30 cancer therapeutic agents: Synergistic anti-proliferation
  no effect (number of cell lines): 19
  synergy (number of cell lines): 23
  % synergy: 55%
